The target in assay [1] is h-r EC1,TM2-4 URAT1 chimera (Homo sapiens, UniProt Q96S37, A103T/A133T/A162V/A184S/A189I/A193M/A195T/A226S/A51V/A59S/A71V/D100E/E110D/E70D/F192L/F208S/G218A/H142Q/I126T/I75V/K134T/K145R/L174R/L206V/L64P/L67F/L99I/M183V/M186S/N136D/N82D/P101S/P165H/P69R/Q182L/R124H/R89L/S107N/S46H/S66D/S68G/T128R/T219S/V117E/V198L/Y152F). Description: cell-based. Conditions: IC50 (uric acid transport), HEPES pH 7.3, 100 μM 14C-uric acid. The text has this: (§1) hURAT1 (GenBank BC053348.1) and rURAT1 (NCBI NM_001034943.1) genes were purchased from Origene Technologies, Inc. and subcloned into pCMV6/neo using NotI, creating pCMV6/neo-hURAT1 and pCMV6/neo-rURAT1. Mutants were produced by polymerase chain reaction (PCR) or site-directed mutagenesis using the QuikChange Lightning Multi Site-Directed Mutagenesis Kit (Agilent Technologies). […] Detailed methods are provided in Supplementary Methods, and primers are listed in Supplementary Table 1. […] Residues in rURAT1 and hOAT1 that correspond to the residues in hURAT1 were identified from aligned protein sequences (Supplementary Fig. 1)[50].
(§2) DNA (10 μg) was mixed with 30 μl of DreamFect Gold (Boca Scientific) in 2 ml OptiMem (Life Technologies). […]
(§3) Compounds were serially diluted into assay buffer and added to the cells for 5 minutes prior to addition of radiolabelled uric acid substrate. […] Each treatment was measured in triplicate. […]
(§4) Nonlinear regression analyses using GraphPad Prism software were used to calculate the potency of URAT1 inhibitors (IC50 values) from log (inhibitor) versus response - variable slope (four parameters) equations. Statistical significance was assessed using Student’s unpaired t-tests.

A further assay concerns the target h-r IC3 URAT1 chimera (Homo sapiens, UniProt Q96S37, F348L/G295S/G307R/G309K/G331N/I305V/K308R/L287I/L321R/L328P/M330G/M343T/P317V/P333A/P334G/Q297R/Q312A/R325Q/R342H/S329N/S336R/T289V/V311E/W294Q/W300Q). Description: cell-based.
Text: as §1, §2, §3, §4

Results on 1 compound are retold here after article PMC5054527, “Mechanism of high affinity inhibition of the human urate transporter URAT1” (Scientific Reports, 2016).

Molecules are shown by their SMILES. Values joined by “and” are separate entries in the source; they are usually repeats but may differ in a detail not shown here. Identical values can stand only once.

Chain of h-r EC1,TM2-4 URAT1 chimera (Q96S37 1-553 with the stated changes): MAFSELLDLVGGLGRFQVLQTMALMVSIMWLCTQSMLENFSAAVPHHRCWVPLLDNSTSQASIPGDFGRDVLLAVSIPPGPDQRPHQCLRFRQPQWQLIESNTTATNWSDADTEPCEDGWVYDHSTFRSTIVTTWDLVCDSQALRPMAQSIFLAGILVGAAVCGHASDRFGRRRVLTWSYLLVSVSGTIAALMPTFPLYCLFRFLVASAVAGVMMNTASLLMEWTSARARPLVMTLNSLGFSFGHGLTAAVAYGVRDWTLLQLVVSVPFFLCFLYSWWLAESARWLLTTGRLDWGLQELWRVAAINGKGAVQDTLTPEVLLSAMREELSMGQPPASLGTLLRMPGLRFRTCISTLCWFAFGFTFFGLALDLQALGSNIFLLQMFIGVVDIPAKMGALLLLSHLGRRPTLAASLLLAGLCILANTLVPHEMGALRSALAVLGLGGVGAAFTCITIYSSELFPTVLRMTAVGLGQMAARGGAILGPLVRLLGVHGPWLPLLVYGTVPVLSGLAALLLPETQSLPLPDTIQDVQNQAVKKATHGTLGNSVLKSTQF
Chain of h-r IC3 URAT1 chimera (Q96S37 1-553 with the stated changes): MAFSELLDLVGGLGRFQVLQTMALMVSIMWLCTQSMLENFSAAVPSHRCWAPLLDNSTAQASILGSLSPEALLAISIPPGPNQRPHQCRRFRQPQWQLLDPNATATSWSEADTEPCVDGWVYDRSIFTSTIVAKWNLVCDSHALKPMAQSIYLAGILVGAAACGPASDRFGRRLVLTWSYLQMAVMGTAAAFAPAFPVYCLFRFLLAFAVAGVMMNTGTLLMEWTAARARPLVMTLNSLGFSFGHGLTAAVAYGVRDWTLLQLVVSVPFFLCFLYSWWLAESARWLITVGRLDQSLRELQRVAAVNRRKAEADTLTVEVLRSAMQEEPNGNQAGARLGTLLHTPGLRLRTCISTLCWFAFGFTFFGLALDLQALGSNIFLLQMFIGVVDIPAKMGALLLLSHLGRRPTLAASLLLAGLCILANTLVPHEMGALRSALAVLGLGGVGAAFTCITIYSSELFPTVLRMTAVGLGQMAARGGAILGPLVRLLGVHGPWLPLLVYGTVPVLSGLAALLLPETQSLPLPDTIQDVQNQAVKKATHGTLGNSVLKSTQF

As to `O=C1C(CC[S+]([O-])c2ccccc2)C(=O)N(c2ccccc2)N1c1ccccc1` (centres unmarked) [sulfinpyrazone], the IC50 – broadly, the concentration that gives 50% inhibition – in assay [1] was 3 µM and 3.4 µM; at h-r IC3 URAT1 chimera, 67 ± 15 µM.
